The values below are quoted from earlier work in patent US7853626B2, “Computational systems for biomedical data” (The Invention Science Fund I, LLC, priority 2006, dated 2010).

Where two headings read alike, the source gives them in different places.

One series deals with hyperthyroidism. Particulars: groups not comparable at baseline (surgery group younger, in better health).

`[131IH]` [iodine-131]: the “frequency of illness and death compared with surgery” value with hyperthyroidism was “much higher frequency of illness and death”.
For `Nc1nc2[nH]cc(CCc3ccc(C(=O)N[C@@H](CCC(=O)O)C(=O)O)cc3)c2c(=O)[nH]1` [pemetrexed], the subset efficacy result (members of the identified subpopulation (low methylmalonic acid / homocysteine)) is given as “maintained or improved efficacy”. For the same molecule, the “odds ratio of developing severe toxicity” value (overall study population) is 1 and the “odds ratio of developing severe toxicity” value (subpopulation with total homocysteine levels of less than 7.5 μmol/l) is recorded as 0.7.
